Measured values taken from a melting point compilation (Tetko et al.; mined from patent text by program, amines drawn as free bases though some values may be those of a salt).

Row | SMILES | melting point [°C]
1 | CCOc1cc(OCCCc2cn(-c3ccccn3)nc2OCC)ccc1CCC(=O)O | 110 to 111
2 | CC1Cc2c(N=C3OC(=O)C4=C3CCCC4)ccc(Cl)c2O1 (stereo unspecified) | 125 to 127
3 | Cc1cn(C(C)C(=O)c2ccc(Cl)cc2)c(=O)n1-c1ccc(N2CCN(c3ccc(O)cc3)CC2)cc1 (stereo unspecified) | 230
4 | COc1ccc(OC)n2nc(N)nc12 | 223 to 234
5 | Oc1ccc(-c2cc3cc(O)ccc3o2)cc1 | 218 to 222
6 | CCOC(=O)c1c(-c2cccc(Cl)c2)noc1C | 71 to 73
7 | CCN1C(=O)CCC2=C1CCc1cc(F)ccc12 | 72
8 | CCSc1cc(S(N)(=O)=O)sc1SCC | 82 to 84
9 | Cc1c(F)cc(C(=O)O)c(Cl)c1[N+](=O)[O-] | 186 to 188
10 | CN1C(=O)C(C)(C)N=C(c2ccccc2F)c2cc(N)cc(Cl)c21 | 169 to 172
11 | COC(=O)c1ccc(C2C(C#N)=C(CC(C)C)NC(C)=C2C(=O)OC(C)(C)C)cc1 (stereo unspecified) | 191 to 193
12 | Cc1cc(SC(C)C)c(NC(=O)CCCSc2nc3cccc(C(F)(F)F)c3o2)c(SC(C)C)n1 | 135 to 136
13 | CS(=O)(=O)CC(=O)c1ccc(NS(C)(=O)=O)c(Oc2ccc(F)cc2F)c1 | 162 to 163
14 | Cc1ccc2c(c1)Cn1nnnc1C(=O)N2 | 244 to 247
15 | CCOCCOc1ccc2c(c1)C(N(CC)S(C)(=O)=O)CC(C)(C)O2 (stereo unspecified) | 73 to 75
16 | FC(F)(F)c1ccc(-c2cc(Cl)ncn2)cc1 | 227 to 230
17 | O=C1CCC2CC(O)C(=O)N12 (stereo unspecified) | 135 to 140
18 | Cc1cccc(-c2nnc(Nc3ccc(Br)c(Cl)c3)s2)c1 | 230 to 231
19 | N#CC=C1CCN(c2ccc(N3C[C@@H](Cn4cc(C#N)nn4)OC3=O)cc2F)CC1 | 78 to 80
20 | Cc1nc2n(c1C)N=C(c1ccc(N)cc1)c1cc3c(cc1C2)OCO3 | 226 to 227
21 | CNC(=O)CN1CCc2cc(Nc3ncc(Cl)c(Nc4ccccc4OC)n3)c(OC)cc2CC1 | 81 to 95
22 | CC(=O)N(c1ccc(F)cc1Cl)S(=O)(=O)CCl | 89 to 92
23 | COc1cccc(Sc2c(O)c3c(Cl)cc(Cl)cc3[nH]c2=O)c1 | 269 to 270

Row | SMILES | melting point [°C]
24 | CCC1(O)c2cc3n(c(=O)c2COC1O)Cc1cc2ccccc2nc1-3 (stereo unspecified) | 280
25 | CC(=O)Nc1ccc(C(=O)CCC(=O)O)cc1Cl | 168 to 170
26 | Clc1ccc(C2(Cn3cncn3)OC2c2ccc(Cl)cc2Cl)cc1 (stereo unspecified) | 119
27 | O=C1c2ccccc2C(O)N1CCCCCCl (stereo unspecified) | 77 to 79
28 | N#CCCCCCCCCCCCCC#N | < 40
29 | O=C(NCC(F)(F)F)NCC(F)(F)F | 154 to 155
30 | CC(C)(C)OC(=O)N1CCCC(c2ccc3c(c2)C2(CO3)C(=O)Nc3ccccc32)C1 (stereo unspecified) | 120 to 123
31 | Cc1cc2c(cc1S(=O)(=O)c1ccc(F)cc1)OC(C(=O)O)O2 (stereo unspecified) | 157 to 158
32 | CCN(CC)c1ccc(C(F)(F)F)cc1NC(=O)c1ccncc1 | 78 to 80
33 | CCOC(=O)c1c(C)nn(-c2cccc(C)c2)c1C | 46.5 to 47.5
34 | Nc1c(N=O)c(=O)n(CC2CC2)c(=O)n1CC1CC1 | 228 to 229
35 | CSC1Oc2cccc3cccc(c23)C1=O (stereo unspecified) | 89 to 91
36 | CCCc1nc(SC(F)F)c(C(=O)O)n1Cc1ccc(-c2ccccc2S(=O)(=O)NC(=O)NCc2ccccc2)cc1 | 150
37 | Oc1c(Br)cc(-c2c3ccccc3c(I)c3sc4ccccc4c23)cc1Br | 221 to 222
38 | CC(N(CC(=O)O)C(=O)c1ccc(C(F)(F)F)cc1)C(O)(Cn1cncn1)c1ccc(C(F)(F)F)cc1 (stereo unspecified) | 201 to 204
39 | FC(F)(F)c1ccc(C=Cc2nc(CCl)cs2)cc1 | 93 to 95
40 | CN(C)C=Nc1c(Cl)cc(N=Cc2ccc(C#N)cc2)cc1Cl | 169 to 170
41 | CCOC(=O)c1cnc2cn[nH]c2c1Sc1ccccc1 | 130 to 131
42 | CCCCCCCCNc1c(Nc2ccc(CC(C)NC[C@H](O)COc3ccccc3)cc2)c(=O)c1=O (stereo partly specified) | 146 to 155
43 | Cc1ccccc1-c1c(C(=O)O)c(=O)oc2cc3c(cc12)CCCC3 | 216 to 217
44 | CCC(Cl)c1ccc(CCNS(=O)(=O)c2ccc(Cl)cc2)cc1 (stereo unspecified) | 90 to 91
45 | CCSc1cn(-c2ccccn2)c2c1C(=O)CC(C)(C)C2 | 158 to 159
46 | Oc1ccc(Oc2ccc(Br)cc2F)cc1 | 83.5 to 85

Row | SMILES | melting point [°C]
47 | CCOc1cc(C2CSCCC2=O)ccc1OC (stereo unspecified) | 108 to 110
48 | CC(C)=NOCc1nc2c(N)nc3ccccc3c2s1 | 152 to 153
49 | CC(C)(C)NC(=O)c1ccc(Cl)c(C(F)(F)F)c1 | 131
50 | COc1ccc(C(=O)O)cc1C(=O)NCc1ccc(C(F)(F)F)cc1 | 236
51 | Cc1ccc(-n2cc(-c3cccn4nc(Nc5ccc(C6CCNCC6)cc5)nc34)cn2)cc1 | 216 to 218
52 | CCCCc1nc2c(c(C)c(C)n3nnnc23)n1CC(C)(C)NC(=O)NC1CCCCC1 | 194 to 197
53 | CNC(=O)C1CN(C(=O)/C=C/C2=C(C)CCCC2(C)C)CCN1C(N)=O (stereo unspecified) | 100 to 112
54 | Cc1cc(O)c(C2CCCCC2)cc1S(=O)c1cc(C2CCCCC2)c(O)cc1C | 151 to 153
55 | COc1cc(NC(C)=O)c2c(c1)OC(C)C2 (stereo unspecified) | 104
56 | CC(=O)NC[C@H]1CN(c2ccc3c(c2)CC(C)N3C(=O)CO)C(=O)O1 (stereo partly specified) | 130 to 133
57 | COc1ccc(-c2[nH]nc3c2C(=O)c2c(NC(=O)NNC(=O)c4ccncc4)cccc2-3)cc1 | 248
58 | Oc1c(C23CC4CC(CC(C4)C2)C3)ccc2ccccc12 | 209 to 210
59 | Cc1nc(CCl)c(Br)s1 | 154 to 156
60 | CS(=O)c1nnc2n1C=Cc1ccccc1C2 (stereo unspecified) | 176 to 177
61 | COc1ccc2nc3ccc(OC)cc3c(Nc3cccc(COC(=O)NC(C)C)c3)c2c1 | 148 to 149
62 | CCCCCCCCC(SCCCCCC)C(=O)Nc1cccc2nnccc12 (stereo unspecified) | 54 to 56
63 | CCC1c2nc[nH]c2CCN1C(=O)NC(C)C (stereo unspecified) | 170
64 | Cc1cccc(C)c1CCOCCCCCCNCc1c(CO)ccc(O)c1CO | 83 to 86
65 | O=C(O)c1cc(Cl)n2cnnc2c1 | 249 to 251
66 | Cc1cc(-c2nc3ccccc3c(=O)n2-c2ccc(Cl)cc2)cc(C)c1OCCO | 101 to 103
67 | CCCc1cc(=O)oc2cc(OC(=O)CC)cc(O)c12 | 166 to 168
68 | CCOC(=O)C1=C2NC=C(C(N)=O)C(=O)N2C(C)CC1 (stereo unspecified) | 251

Now from value to compound:

Row | melting point [°C] | SMILES
69 | 155 to 158 | COc1ccccc1N(CCN1CCC(C(=O)c2ccc(F)cc2)CC1)C(=O)c1ccc(C#N)cc1
70 | 133 to 134 | Cc1oc(-c2ccccc2)nc1COc1ccc(C=CC=O)cc1F
71 | 76.7 to 78.8 | CCOC(=O)c1cn(-c2cccc(COCc3ccccn3)c2)cn1
72 | 137 to 139 | COc1cc(C#N)ccc1C1=CC(C)(C)Oc2ccc(C#N)cc21
73 | 193 to 201 | N#Cc1cc([N+](=O)[O-])ccc1C=C1C=CN(Cc2ccccc2[N+](=O)[O-])C=C1
74 | 200 to 202 | CS(=O)(=O)c1ccc(N2CC(O)(C(F)(F)F)N=C2c2ccc3c(c2)OCO3)cc1 (stereo unspecified)
75 | 233 to 234 | Nc1c(C(=O)c2cc(Cl)ccc2[N+](=O)[O-])[nH]c2cc(Cl)ccc12
76 | 145 to 146 | COc1cn(-c2ccc(C#CC3CC3)cc2F)nc(-c2ccnn2-c2ccccc2)c1=O
77 | 290 to 292 | N#Cc1ccc(-c2cccc(-c3cn4cc(C#N)ccc4n3)c2)cc1
78 | 200 to 202 | CCN(CC)C(=O)c1ccc2cc(-c3csc(N(C)S(=O)(=O)c4ccccc4)n3)c(=O)[nH]c2c1
79 | 117 to 119 | O=C(NCC1Cc2cc(Cl)c3ccccc3c2O1)OCc1ccccc1 (stereo unspecified)
80 | 150 to 152 | CS(=O)(=O)c1ccc(-n2nc(CCCNC(=O)Nc3cccc(C(F)(F)F)c3)cc2-c2ccccc2)cc1
81 | 192 | O=C(O)c1cc(Oc2c(Cl)cc(Cl)cc2Cl)ccc1[N+](=O)[O-]
82 | 125 to 127 | COc1ccc(C(=O)Cc2ccccc2)c(Cl)c1Cl
83 | 180 to 182 | COC(=O)c1cccc2cc(C)n(Cc3ccc(-c4ccccc4-c4nnn[nH]4)cc3)c12
84 | 94 to 96 | C=CCOc1cc(CNc2nc(C)nc(C)c2Cl)ccc1OCc1ccccc1
85 | 147 to 150 | O=[N+]([O-])c1ccc(Oc2ccc(O)c(Cl)c2Cl)cc1

Row | melting point [°C] | SMILES
86 | 102 to 104 | N#Cc1cccc(-c2nc(N)cc3cccnc23)c1
87 | 128 to 129 | O=C1NC(=O)C(Sc2ccc3ccccc3c2Br)S1 (stereo unspecified)
88 | 97 to 98 | COC(=O)c1cccc(CN2C(=O)C3(COc4cc5c(cc43)CCO5)c3ccccc32)c1 (stereo unspecified)
89 | 156 | Cc1cc2cccc(N=C3SC[C@@H]4Cc5ccccc5CN34)c2cn1
90 | 178 to 181 | O=C(O)c1ccccc1C(=O)c1ccc(Cl)cc1Cl
91 | 171 to 172 | Cc1nnc(-c2ccc3occ(-c4ccc(S(=O)Cc5ccccc5C#N)cc4)c3c2)o1 (stereo unspecified)
92 | 156 to 160 | COc1cc(C)c(C(=O)c2c(Cl)cccc2Cl)cc1[N+](=O)[O-]
93 | 118 to 120 | Cc1cc(C(=O)N2Cc3cccn3Cc3ccccc32)ccc1C1=CC(C)(C)CC(C)(C)C1
94 | 177 to 179 | O=[N+]([O-])c1ccc(NS(=O)(=O)c2cc(Cl)c(Cl)cc2Cl)c(Cl)c1
95 | 186 to 187 | CC(O)(Cc1ccccc1)CN1CCC2(CC1)CSC1=C(O2)c2ccccc2C(=O)C1=O (stereo unspecified)
96 | 171 to 173 | COc1ccc(S(=O)(=O)Nc2ccc(-c3ccccc3)cc2)cc1OC
97 | 153 to 154 | NC(=O)NCCn1cc(Cn2ccnc2)c2ccccc21
98 | > 243 | O=C(O)c1c2nc3ccccc3c-2[nH]c2ccc(F)cc12
99 | 130 to 131 | Cc1c(C)c2c(c(C)c1NC=O)CC(C)(CSc1ccccc1)O2 (stereo unspecified)
100 | 65 | BrCC(=CSc1ccccc1Br)c1ccccc1
101 | 127 to 128 | O=C(N[C@H]1CCN(CCc2ccc(F)cc2)C1)C1=c2ccccc2=CC=C2CC=CC=C21
